What follows are molecules tested against T1, IC-GPCR2 (Homo sapiens, UniProt Q8TDV5) (assay: Stimulation of cAMP in CHO cell line stably expressing IC-GPCR2 (HTRF cAMP dynamic kit)). Conditions: 3 μM compound; relative to maximal activity of 5-Ethyl-2-{4-[4-(4-tetrazol-1-yl-phenoxymethyl)-thiazol-2-yl]-piperidin-1-yl}-pyrimidine (=100%); IC-GPCR2 stably expressing CHO cells, 30 minutes.
T1 construct: expressed in transfected cells
T1 sequence (Q8TDV5 1-335 S309L): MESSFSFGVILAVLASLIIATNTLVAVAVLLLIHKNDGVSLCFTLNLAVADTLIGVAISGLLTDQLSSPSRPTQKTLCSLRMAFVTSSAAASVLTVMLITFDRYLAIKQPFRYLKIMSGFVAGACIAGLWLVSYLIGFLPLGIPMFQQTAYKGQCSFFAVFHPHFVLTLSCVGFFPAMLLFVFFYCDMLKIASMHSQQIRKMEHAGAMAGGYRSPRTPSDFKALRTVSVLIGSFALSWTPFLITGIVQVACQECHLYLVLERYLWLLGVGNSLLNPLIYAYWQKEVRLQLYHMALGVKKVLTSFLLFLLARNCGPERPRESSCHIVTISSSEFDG
Assay type: cell-based
Experimental: This assay was developed using a stable cell line expressing IC-GPCR-2, generated as follows. IC-GPCR2 (Seq. ID No. 1) was cloned into Gateway pDEST 40vector (Invitrogen), using the Gateway cloning system (invitrogen) according to the manufacturers instructions. A stable cell line was generated by transfecting a 10 cm plate of CHO cells (source) with 8 ug of this construct using Transit-CHO transfection kit (Mirus). CHO cells were plated the day prior to transfection at a density of 3,000,000 cells/plate. Clones were selected using the antibiotic G418 at 500 ug/ml. 23 clones were picked and assayed for the expression of the receptor by measuring changes in intracellular cAMP levels in response to an IC-GPCR2 agonist (Arena 51).
To measure cAMP activity in response to IC-GPCR2 agonist, the clones were plated in 96 well plates at 17500 cells per well. On the day after plating, cells were incubated with the IC-CPCR2 agonist at […] for 30 minutes in Ham's F12 Media (Gibco) with 0.04% DMSO. cAMP was measured using the cAMP dynamic kit from C is Bio (Bedford, Mass.) according to the manufacturers instructions. Briefly, cells were lysed, and cAMP levels determined by competitive immunoassay using D2 labeled cAMP, and europium cryptate tagged anti cAMP antibody. When in close proximity, the D2 and europium cryptate undergo fluorescence resonance energy transfer (FRET), which is measured as a fluorescence ratio (665 nm/620 nm). Unlabelled cAMP in the cell lysatc competed with the D2 labeled cAMP for the europium crypate labeled antibody. The resulting decrease in FRET signal corresponded to intracellular cAMP levels. Fluorescence was read on a BMG Labtech PHERAstar, software version 1.50.
The clone with the greatest response to IC-GPCR2 agonist was selected for the screening assay.
Compounds were dissolved in 100% DMSO to a concentration of […] to provide stock solutions. To determine activity against IC-GPCR2, compounds were incubated with IC-GPCR2 stably expressing cells (described above), at 6-8 concentrations ranging from 0.00003 to 10 micromolar, in 96 well plates, in 50 ul of Hams F12 media for 30 minutes. Cells were plated at 17500 cells per well 1 day before running the assay. All compounds were also screened against the parental CHO cells. cAMP was measured using the cAMP dynamic kit from Cis Bio (Bedford, Mass.), according to the manufacturer's instructions. Briefly, cells were lysed and cAMP levels determined by competitive immunoassay using D2 labeled cAMP, and europium cryptate tagged anti cAMP antibody. When in close proximity, the D2 and europium cryptate undergo fluorescence resonance energy transfer (FRET), which is measured as a fluorescence ratio (665 nm/620 nm). Unlabelled cAMP in the cell lysate competed with the D2 labeled cAMP for the europium crypate labeled antibody. The resulting decrease in FRET signal corresponded to intracellular cAMP levels
To determine percent activity for a tested compound, the FRET signal value obtained at a particular concentration are compared to the Maximal FRET signal value obtained for 5-Ethyl-2-{4-[4-(4-tetrazol-1-yl-phenoxymethyl)-thiazol-2-yl]-piperidin-1-yl}-pyrimidine. The maximal activity of 5-Ethyl-2-{4-[4-(4-tetrazol-1-yl-phenoxymethyl)-thiazol-2-yl]-piperidin-1-yl}-pyrimidine is designated as 100% activity. Typically, the concentration of 5-Ethyl-2-{4-[4-(4-tetrazol-1-yl-phenoxymethyl)-thiazol-2-yl]-piperidin-1-yl}-pyrimidine in the assay was approximately 0.1 μM. The synthesis of 5-Ethyl-2-{4-[4-(4-tetrazol-1-yl-phenoxymethyl)-thiazol-2-yl]-piperidin-1-yl}-pyrimidine is disclosed in co-owned pending U.S. patent application Ser. No. 11/964,461, herein incorporated by reference. Activities of compounds that were tested are shown in Table 1 below and are expressed as % activity at 3 μM compound compared to the maximal activity of 5-Ethyl-2-{4-[4-(4-tetrazol-1-yl-phenoxymethyl)-thiazol-2-yl]-piperidin-1-yl}-pyrimidine at 3 μM.

Compound | % activity at 3 μM [%]
Fc1cc(-n2cnnn2)ccc1OCc1cnn([C@H]2CCN(c3ncc(Cl)cn3)C[C@@H]2F)n1 (racemic) [Example 33, 5-Chloro-2-((trans)-3-fluoro-4-(4-((2-fluoro-4-(1H-tetrazol-1-yl)phenoxy)methyl)-2H-1,2,3-triazol-2-yl)piperidin-1-yl)pyrimidine] | 88.32
Fc1cc(-n2cnnn2)ccc1OCc1cnn([C@H]2CCN(c3ncc(C(F)(F)F)cn3)C[C@@H]2F)n1 (racemic) [Example 34, 2-((trans)-3-Fluoro-4-(4-((2-fluoro-4-(1H-tetrazol-1-yl)phenoxy)methyl)-2H-1,2,3-triazol-2-yl)piperidin-1-yl)-5-(trifluoromethyl)pyrimidine] | 87.61
CCc1cnc(N2CC[C@H](n3ncc(COc4ccc(-n5cnnn5)cc4F)n3)[C@@H](F)C2)nc1 (racemic) [Example 38, 5-Ethyl-2-((trans)-3-fluoro-4-(4-((2-fluoro-4-(1H-tetrazol-1-yl)phenoxy)methyl)-2H-1,2,3-triazol-2-yl)piperidin-1-yl)pyrimidine] | 85.32
CC(C)(C)OC(=O)N1CC[C@@H](n2ncc(COc3ccc(-n4cnnn4)cc3F)n2)[C@H](F)C1 (relative stereo) [Example 49, (trans)-tert-Butyl 3-fluoro-4-(4-((2-fluoro-4-(1H-tetrazol-1-yl)phenoxy)methyl)-2H-1,2,3-triazol-2-yl)piperidine-1-carboxylate] | 78.48
COC(=O)[C@H]1C[C@H](n2ncc(COc3ccc(-n4cnnn4)nc3)n2)CCN1C(=O)OC(C)(C)C (relative stereo) [Example 59] | 33.25
CC(C)(C)OC(=O)N1CCC(n2cnc(COc3ccc(S(C)(=O)=O)cc3F)n2)CC1 [Example 1, 4-[3-(2-Fluoro-4-methanesulfonyl-phenoxymethyl)-[1,2,4]triazol-1-yl]-piperidine-1-carboxylic acid tert-butyl ester] | 64.46
CC(C)(C)OC(=O)N1CCC(n2ncc(COc3ccc(-n4cnnn4)cc3)n2)CC1 [Example 3, 4-[4-(4-Tetrazol-1-yl-phenoxymethyl)-[1,2,3]triazol-2-yl]-piperidine-1-carboxylic acid tert-butyl ester] | 79.02
CC(C)(C)OC(=O)N1CCC(n2ncc(COc3ccc(S(C)(=O)=O)cc3F)n2)CC1 [Example 4, 4-[4-(2-Fluoro-4-methanesulfonyl-phenoxymethyl)-[1,2,3]triazol-2-yl]-piperidine-1-carboxylic acid tert-butyl ester] | 79.18
CC(C)(C)OC(=O)N1CCC(n2nnc(COc3ccc(S(C)(=O)=O)cc3F)n2)CC1 [Example 5, 4-[5-(2-Fluoro-4-methanesulfonyl-phenoxymethyl)-tetrazol-2-yl]-piperidine-1-carboxylic acid tert-butyl ester] | 75.78
CC(C)(C)OC(=O)N1CCC(n2ccc(COc3ccc(-n4cnnn4)cc3F)n2)CC1 [Example 6, 4-[3-(2-Fluoro-4-tetrazol-1-yl-phenoxymethyl)-pyrazol-1-yl]-piperidine-1-carboxylic acid tert-butyl ester] | 79.51
CC(C)(C)OC(=O)N1CCC(n2cc(COc3ccc(-n4cnnn4)cc3F)cn2)CC1 [Example 7, 4-[4-(2-Fluoro-4-tetrazol-1-yl-phenoxymethyl)-pyrazol-1-yl]-piperidine-1-carboxylic acid tert-butyl ester] | 78.16
CC(C)(C)OC(=O)N1CCC(n2cc(COc3ccc(-n4cnnn4)cc3)cn2)CC1 [Example 8, 4-[4-(4-Tetrazol-1-yl-phenoxymethyl)-pyrazol-1-yl]-piperidine-1-carboxylic acid tert-butyl ester] | 77.16
CCc1cnc(N2CCC(n3cnc(COc4ccc(S(C)(=O)=O)cc4F)n3)CC2)nc1 [Example 9, 5-Ethyl-2-{4-[3-(2-fluoro-4-methanesulfonyl-phenoxymethyl)-[1,2,4]triazol-1-yl]-piperidin-1-yl}-pyrimidine] | 65.75
CCc1cnc(N2CCC(n3ncc(COc4ccc(S(C)(=O)=O)cc4F)n3)CC2)nc1 [Example 10, 5-Ethyl-2-{4-[4-(2-fluoro-4-methanesulfonyl-phenoxymethyl)-[1,2,3]triazol-2-yl]-piperidin-1-yl}-pyrimidine] | 71.04
CS(=O)(=O)c1ccc(OCc2cnn(C3CCN(c4ncc(Cl)cn4)CC3)n2)c(F)c1 [Example 13, 5-Chloro-2-{4-[4-(2-fluoro-4-methanesulfonyl-phenoxymethyl)-[1,2,3]triazol-2-yl]-piperidin-1-yl}-pyrimidine] | 61.30
CS(=O)(=O)c1ccc(OCc2cnn(C3CCN(c4ncc(C(F)(F)F)cn4)CC3)n2)c(F)c1 [Example 14, 2-{4-[4-(2-Fluoro-4-methanesulfonyl-phenoxymethyl)-[1,2,3]triazol-2-yl]-piperidin-1-yl}-5-trifluoromethyl-pyrimidine] | 74.80
Fc1cc(-n2cnnn2)ccc1OCc1cnn(C2CCN(c3ncc(C(F)(F)F)cn3)CC2)n1 [Example 15, 2-{4-[4-(2-Fluoro-4-tetrazol-1-yl-phenoxymethyl)-[1,2,3]triazol-2-yl]-piperidin-1-yl}-5-trifluoromethyl-pyrimidine] | 75.63
Fc1cc(-n2cnnn2)ccc1OCc1cnn(C2CCN(c3ncc(Cl)cn3)CC2)n1 [Example 16, 5-Chloro-2-{4-[4-(2-fluoro-4-tetrazol-1-yl-phenoxymethyl)-[1,2,3]triazol-2-yl]-piperidin-1-yl}-pyrimidine] | 70.31
CS(=O)(=O)c1ccc(OCc2nnn(C3CCN(c4ncc(Cl)cn4)CC3)n2)c(F)c1 [Example 17, 5-Chloro-2-{4-[5-(2-fluoro-4-methanesulfonyl-phenoxymethyl)-tetrazol-2-yl]-piperidin-1-yl}-pyrimidine] | 68.23
CCc1cnc(N2CCC(n3cc(COc4ccc(-n5cnnn5)cc4)cn3)CC2)nc1 [Example 18, 2-(4-(4-((4-(1H-tetrazol-1-yl)phenoxy)methyl)-1H-pyrazol-1-yl)piperidin-1-yl)-5-ethylpyrimidine] | 77.67
CCc1cnc(N2CCC(n3cc(COc4ccc(-n5cnnn5)cc4F)cn3)CC2)nc1 [Example 19, 5-Ethyl-2-(4-(4-((2-fluoro-4-(1H-tetrazol-1-yl)phenoxy)methyl)-1H-pyrazol-1-yl)piperidin-1-yl)pyrimidine] | 80.10
CC(C)(C)OC(=O)N1CCC(n2cc(COc3ccc(S(C)(=O)=O)cc3)nn2)CC1 [Example 21, 4-[4-(4-Methanesulfonyl-phenoxymethyl)[1,2,3]triazol-1-yl]-piperidine-1-carboxylic acid tert-butyl ester] | 63.66
